Experimental data published in patent US4014909A, “Esters of 21-thiol steroids” (priority 1974, dated 1977).
Where two headings read alike, the source gives them in different places.

Columns and labels:
[1] = cited from earlier work; for Adreno-corticoid activity / Diuretic activity: U.S. Pat. No. 2,814,632
granuloma / thymus = test: Ratio of the local anti-inflammatory activity to the thymolytic activity; assay type: in vivo, rat (Wistar); conditions: for ED50 anti-proliferative activity / ED50 thymolytic activity (sub-cutaneous route): thymolytic activity determined by sub-cutaneous route; for ED50 anti-proliferative activity / ED50 thymolytic activity (oral route): thymolytic activity determined by the oral route
Description: The DE50 were calculated by transferring the results on to semi-logarithmic paper.
(§1) For each animal, the weight of the thymus has been brought to 100 grams of body weight. The thymolytic activity of the products under study was then expressed as a percentage of regression of the thymus with respect to the animals of the reference group and the ED50 of each product tested was estimated by transferring the percentage inhibition obtained for each dose on semi-logarithmic paper.
The ratio is indicated in Tables VII, VIII and IX which follow: […]

granuloma = test: Anti-proliferative (anti-granulomatous) activity, cotton pellet granuloma; assay type: in vivo, rat (Wistar, male); conditions: rat, cotton pellet impregnated with product, 6 days
Excerpt: The experimental local anti-inflammatory activity of the compounds presented was estimated in rats by their anti-proliferative (anti-granulomatous) action, and for certain of these, by their anti-arthritic activity and their antiexudative activity.
The anti-proliferative (anti-granulomatous) activity has been brought into evidence by means of a test, the principle of which is as follows.
The introduction of a foreign body into an organism produces a set of inflammatory reactions which results, in the chromic stage, in the formation of a defence granuloma around the foreign body. The proliferation of this granuloma is eliminated or attenuated by anti-inflammatory agents.
The technique employed is very similar to that described by Winter and Porter (J. Am. Pharm. Ass. 46/9. 515) 1957 with rats.
Homogeneous groups of 6 male adult rats of the Wistar Strain were used, distributed at random and having weights comprised between 180 and 200 grams.
The implants or pellets were prepared from rolls of dental cotton; the weight of the pellets was between 35 and 40 mg.
The products to be tested were dissolved in dimethylsulphoxide (DMSO) and the solutions obtained, deposited on the pellets at a volume of 0.2 ml per pellet. The DMSO was then evaporated under high vacuum at ambient temperature, the complete elimination of the solvent being checked by weighing the pellets. "Reference" pellets, soaked with the solvent alone, were treated in the same manner.
Immediately before their introduction, the pellets were soaked with an antibiotic solution (0.1 ml. of a solution of penicillin G and streptomycin containing 200,000 of penicillin G and 0.1 gram of streptomycin sulphate per cc.).
Each animal received two pellets in the sub-cutaneous dorsal tissue on each side of the spinal column, at the costo-lumbar angle, under light anaesthesia with ether. The day of the operation and for three days after, the animals received by sub-cutaneous injection, 0.1 ml. of the antibiotic solution in the caudal region.
Six days after the introduction, the animals were killed by inhalation of chloroform and the granulomae were extracted and weighed, (fresh weight), and then the initial weights of the cotton pellets were subtracted from the total weight.
Certain non-sulphured steroids causing a large increase in protein catabolism which can influence the formation of the granuloma independently of their anti-inflammatory action, the weights of the granulomae were expressed as a percentage of the body weight (technique proposed by G. Dipasquale and A. Meli: J. Pharm. Pharmacol. (1965), 17,367-382) and the anti-proliferative effect of the various compounds as a percentage inhibition with respect to the reference granulomae. The DE50 were calculated by transferring the results on to semi-logarithmic paper.

thymus = assay type: in vivo, rat (Wistar, young male)
Description: The thymolytic effects have been examined by means of a test, the principle of which is as follows:
The repeated administration of a gluco-corticoid having a systemic activity causes an involution of the defence system of the organism, of which two organs belong to the reticulo-endothelial system, the spleen and the thymus, this latter being the most sensitive to this action, especially with young animals. The thymic involution is estimated by weighing.
The various products were injected daily by the oral or the sub-cutaneous route for four days, to young male rats of Wistar-strain, the initial weight of which was between 45 and 55 grams, distributed at random by groups of ten.
The products under study were administered at a volume of 0.2 ml. per animal for both methods, in suspension in:
Carboxy-methyl-cellulose at 5 % for sub-cutaneous injection;
Gum arabic at 5 % for the oral route.
The animals of the reference groups received the same volume of the corresponding vehicle.
Ninety-six hours after the first administration, the animals were killed, the thymus glands being taken and weighed immediately.
as §1

[2] = oral, total dose administered during four days per rat of about 50 g
[3] = sub-cutaneous, total dose administered during four days per rat of about 50 g

SMILES | ED50 anti-proliferative activity / ED50 thymolytic activity (sub-cutaneous route) (granuloma / thymus) | ED50 anti-proliferative activity / ED50 thymolytic activity (oral route) (granuloma / thymus) | ED50 anti-proliferative activity (granuloma) | ED50 thymolytic activity, sub-cutaneous route (thymus; rat, in vivo, 5760 min) | ED50 thymolytic activity, oral route (thymus; rat, in vivo, po, 5760 min) | also measured
CCC(=O)SCC(=O)[C@@]1(O)CC[C@H]2[C@@H]3CCC4=CC(=O)C=C[C@]4(C)[C@H]3[C@@H](O)C[C@@]21C [21-thio propionate of prednisolone] |  |  |  |  |  | Adreno-corticoid activity [1]: possessing an adreno-corticoid activity; Diuretic activity [1]: considerable diuretic activity
CC(=O)SCC(=O)[C@@]1(O)[C@H](C)C[C@H]2[C@@H]3CCC4=CC(=O)C=C[C@]4(C)[C@@]3(F)[C@@H](O)C[C@@]21C [21-thio-acetate of dexamethasone] |  |  |  |  |  | Anti-inflammatory action ([1]; French Pat. No. 1187 M): anti-inflammatory product with a local action and a systemic action
CC(=O)SCC(=O)[C@@]1(O)CC[C@H]2[C@@H]3CCC4=CC(=O)CC[C@]4(C)[C@H]3[C@@H](O)C[C@@]21C [21-thio-acetate of hydrocortisone] |  |  |  |  |  | Biological activity ([1]; J. Org. Chem. 26,1233, 1961): free of all interesting biological activity
CC(=O)SCC(=O)[C@@]1(O)CC[C@H]2[C@@H]3CCC4=CC(=O)C=C[C@]4(C)[C@H]3[C@@H](O)C[C@@]21C [21-thio-acetate of prednisolone] |  |  |  |  |  | Adreno-corticoid activity [1]: possessing an adreno-corticoid activity; Diuretic activity [1]: considerable diuretic activity
CC(=O)OCC(=O)[C@@]1(O)[C@H](C)C[C@H]2[C@@H]3CCC4=CC(=O)C=C[C@]4(C)[C@@]3(F)[C@@H](O)C[C@@]21C [Dexamethasone (acetate), Dexamethasone acetate, reference compound] | 40 | 40 | 0.4 mg/pellet | 0.009 mg | 0.01 mg | 
C[C@@H]1C[C@H]2[C@@H]3CCC4=CC(=O)C=C[C@]4(C)[C@@]3(F)[C@@H](O)C[C@]2(C)[C@@]1(O)C(=O)CO [Dexamethasone (base), Dexamethasone, reference compound] | 50 | 80 | 1 mg/pellet | 10.02 mg | 0.013 mg | 
C[C@]12CCC(=O)C=C1CC[C@@H]1[C@@H]2[C@@H](O)C[C@@]2(C)[C@H]1CC[C@]2(O)C(=O)CO [Hydrocortisone (base), Hydrocortisone, reference compound] | 5.5 | 2.5 | 10 mg/pellet | 1.8 mg | 4 mg | 
CC(C)(C)C(=O)SCC(=O)[C@@]1(O)CC[C@H]2[C@@H]3CCC4=CC(=O)C=C[C@]4(C)[C@H]3[C@@H](O)C[C@@]21C [JO 1007, Dihydroxy-11β, 17αThiol 21 Dioxo-3,20 Pregnadiene-1,4 -21 Pivalate] | 0.014 | 0.046 | 0,44 mg/pellet | 30.4 mg | 9.6 mg | 
C[C@@H]1C[C@H]2[C@@H]3CCC4=CC(=O)C=C[C@]4(C)[C@@]3(F)[C@@H](O)C[C@]2(C)[C@@]1(O)C(=O)CSC(=O)C(C)(C)C [JO 1008, Dihydroxy-11β, 17α thiol-21 dioxo-3,20 fluoro-9α methyl-16α pregnadiene-1,4-21-pivalate] | 1.25 |  | 1 mg/pellet | 0.8 mg |  | 
CCCCCCC(=O)SCC(=O)[C@@]1(O)CC[C@H]2[C@@H]3CCC4=CC(=O)C=C[C@]4(C)[C@H]3[C@@H](O)C[C@@]21C [JO 1009, Dihydroxy-11β, 17αthiol-21 dioxo-3,20 pregnadiene-1,4-21 heptanoate] | 0.0625 |  | 0.5 mg/pellet | 8 mg |  | 
CCCCCCC(=O)SCC(=O)[C@@]1(O)[C@H](C)C[C@H]2[C@@H]3CCC4=CC(=O)C=C[C@]4(C)[C@@]3(F)[C@@H](O)C[C@@]21C [JO 1010, Dihydroxy611β, 17α thiol-21 dioxo-3,20 fluoro-9α methyl-16α pregnadiene-1,4-21 heptanoate] | 1.25 |  | 0,5 mg/pellet | 0.4 mg |  | 
C[C@@H]1C[C@H]2[C@@H]3CCC4=CC(=O)C=C[C@]4(C)[C@@]3(F)[C@@H](O)C[C@]2(C)[C@@]1(O)C(=O)CSC(=O)c1ccc(F)cc1 [JO 1013, Dihydroxy-11β, 17α thiol-21 dioxo-3,20 fluoro-9α methyl-16α pregnadiene-1,4-21 p. fluoro benzoate] | 0.625 |  | 0.5 mg/pellet | 0.8 mg |  | 
C[C@]12C=CC(=O)C=C1CC[C@@H]1[C@@H]2[C@@H](O)C[C@@]2(C)[C@H]1CC[C@]2(O)C(=O)CSC(=O)c1ccc(F)cc1 [JO 1014, Thiol-21 dioxo-3,20 pregnadiene-1,4-21 p. fluorobenzoate] | 0.0125 | 0,012 | 0.5 mg/pellet | > 40 mg | 40 mg | 
C[C@]12CCC(=O)C=C1CC[C@@H]1[C@@H]2[C@@H](O)C[C@@]2(C)[C@H]1CC[C@]2(O)C(=O)CSC(=O)c1ccc(F)cc1 [JO 1026, Dihydroxy-11β, 17α thiol-21 dioxo-3,20 pregnene-4-21 p. fluoro-benzoate] | < 0.01 | < 0.01 | 0.4 mg/pellet | > 40 mg | > 40 mg | 
CC(=O)OCC(=O)[C@@]1(O)CC[C@H]2[C@@H]3CCC4=CC(=O)C=C[C@]4(C)[C@H]3[C@@H](O)C[C@@]21C [Prednisolone (acetate), reference compound] |  |  | 2 mg/pellet |  |  | ED50 thymolytic activity, oral route (thymus; [2]): 0.64 mg; ED50 thymolytic activity, sub-cutaneous route (thymus; [3]): 0.23 mg
C[C@]12C=CC(=O)C=C1CC[C@@H]1[C@@H]2[C@@H](O)C[C@@]2(C)[C@H]1CC[C@]2(O)C(=O)CO [Prednisolone (base), Prednisolone, reference compound] | 5 | 12.5 | 4 mg/pellet |  |  | ED50 thymolytic activity, oral route (thymus; [2]): 0.34 mg; ED50 thymolytic activity, sub-cutaneous route (thymus; [3]): 0.84 mg
